# Experimental data published in ChEMBL document CHEMBL1126340, “Dual-acting thromboxane receptor antagonist/synthase inhibitors: heterocyclic variations” (Bioorg Med Chem Lett, 1992).
# Key:
# [1] = target: T1, Thromboxane-A synthase (Homo sapiens, UniProt P24557); experiment: Inhibition of human Thromboxane A2 synthase
# T1 sequence (P24557 whole entry): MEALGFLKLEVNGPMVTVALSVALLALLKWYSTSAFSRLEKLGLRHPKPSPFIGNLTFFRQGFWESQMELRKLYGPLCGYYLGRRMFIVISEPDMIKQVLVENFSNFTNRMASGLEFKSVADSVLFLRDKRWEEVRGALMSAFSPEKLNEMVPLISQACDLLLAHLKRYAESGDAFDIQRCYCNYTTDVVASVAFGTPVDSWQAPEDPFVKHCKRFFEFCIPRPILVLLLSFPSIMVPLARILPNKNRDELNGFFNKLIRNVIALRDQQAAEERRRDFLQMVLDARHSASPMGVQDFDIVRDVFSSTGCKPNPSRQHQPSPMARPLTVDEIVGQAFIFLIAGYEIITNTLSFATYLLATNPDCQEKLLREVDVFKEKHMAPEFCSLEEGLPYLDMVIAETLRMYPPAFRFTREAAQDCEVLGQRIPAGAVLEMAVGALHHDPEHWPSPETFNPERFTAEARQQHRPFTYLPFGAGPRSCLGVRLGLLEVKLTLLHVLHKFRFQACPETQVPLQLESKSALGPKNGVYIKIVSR
# [2] = target: T2, Thromboxane A2 receptor (Homo sapiens, UniProt P21731); experiment: Antagonistic potency against Thromboxane A2 receptor expressed as inhibition of U 46619-induced platelet aggregation in human platelet rich plasma.; assay type: functional; settings: read-out: pA2 (converted)
# T2 sequence (P21731 whole entry): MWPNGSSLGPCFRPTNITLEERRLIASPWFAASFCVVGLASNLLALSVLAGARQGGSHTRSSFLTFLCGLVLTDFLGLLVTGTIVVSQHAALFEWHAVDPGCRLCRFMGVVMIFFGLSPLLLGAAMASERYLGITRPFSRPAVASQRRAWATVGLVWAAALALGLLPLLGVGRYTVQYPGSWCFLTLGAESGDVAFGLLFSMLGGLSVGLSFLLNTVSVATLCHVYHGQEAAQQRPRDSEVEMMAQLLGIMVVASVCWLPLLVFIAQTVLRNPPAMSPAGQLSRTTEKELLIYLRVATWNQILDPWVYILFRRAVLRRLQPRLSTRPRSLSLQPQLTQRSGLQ
# [3] = tested on: Canis familiaris; experiment: Compound was tested in vivo for blockade of U 46619-induced platelet aggregation in conscious dog at a oral dose of 1 mg/kg; Expressed as Concentration ratio; assay type: functional, Canis lupus familiaris
# [4] = tested on: Canis familiaris; experiment: Compound was tested in vivo for inhibition of serum TXB2 formation in conscious dog at a oral dose of 1 mg/kg; assay type: functional; settings: Canis lupus familiaris
IC50 [1],Kb [2],Compound,Activity [3],inhibition in vivo at 1 mg/kg [4]
120 nM,–,CC1(C)OC[C@@H](C/C=C\CCC(=O)O)[C@@H](c2cccnc2)O1,–,–
18 nM,5.01 nM,Cc1ccc(OC(C)(C)[C@H]2OC[C@@H](C/C=C\CCC(=O)O)[C@@H](c3cncs3)O2)c([N+](=O)[O-])c1,>50,60%
> 10000 nM,–,CC1(C)OC[C@@H](C/C=C\CCC(=O)O)[C@@H](c2cnccn2)O1,–,–
70 nM,–,Cn1cncc1[C@H]1OC(C)(C)OC[C@H]1C/C=C\CCC(=O)O,–,–
50 nM,3.98 nM,Cc1ccc(OC(C)(C)[C@H]2OC[C@@H](C/C=C\CCC(=O)O)[C@@H](c3cncn3C)O2)c([N+](=O)[O-])c1,–,–
> 10000 nM,–,CC1(C)OC[C@@H](C/C=C\CCC(=O)O)[C@@H](c2cncnc2)O1,–,–
80 nM,–,CC1(C)OC[C@@H](C/C=C\CCC(=O)O)[C@@H](c2cncs2)O1,–,–
900 nM,–,CCCCCCn1cncc1[C@H]1OC(C)(C)OC[C@H]1C/C=C\CCC(=O)O,–,–
19 nM,3.98 nM,Cc1ccc(OC(C)(C)[C@H]2OC[C@@H](C/C=C\CCC(=O)O)[C@@H](c3cccnc3)O2)c([N+](=O)[O-])c1,–,–
490 nM,200 nM,CCCCCCn1cncc1[C@H]1O[C@@H](C(C)(C)Oc2ccc(C)cc2[N+](=O)[O-])OC[C@H]1C/C=C\CCC(=O)O,–,–
4100 nM,–,CC1(C)OC[C@@H](C/C=C\CCC(=O)O)[C@@H](c2cccs2)O1,–,–
7400 nM,–,CC1(C)OC[C@@H](C/C=C\CCC(=O)O)[C@@H](c2ccnnc2)O1,–,–
> 10000 nM,–,CC1(C)OC[C@@H](C/C=C\CCC(=O)O)[C@@H](c2cnco2)O1,–,–
